Reference: patent publication US5702728A, “Clam extract preparation, the method of preparation and use thereof” (priority 1993, dated 1997)

How the values were obtained:
[1] = test system: Body Torsion Reaction of Mice Caused by Acetic Acid; experiment: Body torsion reaction of mice caused by acetic acid, intrarectal administration; format: in vivo; conditions: 7.5 mg/kg
Procedure: (§1) The purpose of the test is to observe effects of the suppository prepared by the clam extract composition of the invention on pains of mice caused by chemical and electric irritation, and the time of initiation and duration of the effect.
(§2) The clam extract composition of the invention was dissolved in 2 mol acetic acid and the pH value was adjusted to be 6.5~7.0. Then normal saline in an adequate amount was added.
(§3) Indomethacin: produced by Nantong Second Pharmaceutical Factory, with the lot number of 860321, which was formulated into a suspension with 2% of water-soluble starch paste.
After fasting for 12 hours, 60 mice were randomly allotted into 6 groups based on their body weight and sex. The drug was intrarectally administered in the dosage indicated in Table 3 and the volume of drug administered was 0.05 ml per mouse. 35 minutes later, 0.20 ml of 0.6% acetic acid was intraperitoneally injected to each mouse. The number of body torsion reactions (abdominal excavation, extension of trunk and hind limbs, and elevation of buttock) observed within 15 minutes after the injection of acetic acid was recorded.

[2] = test system: Pain Threshold of Tail Roots of Mice Caused by Electric Irritation; experiment: Pain threshold of tail roots of mice, electric irritation; format: in vivo; conditions: 7.5 mg/kg; for Pain threshold: before medication 0.22 ± 0.08, P < 0.05; for Increasing percentage of the pain threshold: intrarectal, P < 0.01 vs control
Procedure: as §1, §2, §3
An electric stimulator of Model NEN-7103, and an isolator of Model SS-102J, made in Japan.
After fasting for 12 hours, 50 mice were randomly allotted into 5 groups based on their body weight and sex. The root of mouse's tail was stimulated with electric current of square wave (10 ms of pulse width and 1 Hz of the frequency). The pain threshold was determined as the electric intensity which just makes the mouse screaming. The drug was intrarectally administered with the volume of 0.05 ml per mouse. […]

[3] = test system: Body Torsion Reaction of Mice Caused by Acetic Acid; experiment: Body torsion reaction of mice caused by acetic acid, oral administration; format: in vivo, Kunming strain mice; conditions: 0.03 (head mg/kg; text 30 mg/kg)
Procedure: Clam extract composition of the invention was dissolved in 2N acetic acid and the pH value was adjusted to be 6.5~7.0. The normal saline in an adequate amount was added to formulate a solution. Indomethacin: produced by Shijiazhuang Pharmaceutical Factory, with the lot number of 009011021, which was formulated into a suspension with 2% of starch paste.
Kunming strain mice, male and female, with body weight of 20±2 g, provided by the Department of Animals of Beijing Medical University.
Fifty mice were randomly allotted into 5 groups based on their body weight and sex. In the control group, 0.2 ml/kg body weight of normal saline was administered per oral; while in the positive group, 30 mg/kg of indomethacin was administered per oral. […] 90 minutes later, 0.2 ml of 0.6% acetic acid per mouse was intraperitoneally injected and the number of body torsion reactions (abdominal excavation, extension of trunk and hind limbs, and elevation of buttock) of the mouse observed within 15 minutes after the injection of acetic acid was recorded.

For COc1ccc2c(c1)c(CC(=O)O)c(C)n2C(=O)c1ccc(Cl)cc1 [Indomethacin], the Inhibition rate [1] was 93.1%, the “Number of body torsions” value ([1]; control 39.3 ± 14.4) was 2.7 ± 4.1 n and the Pain threshold ([2]; 20 min, control 0.25 ± 0.08) was 0.32 ± 0.06 mA. For the same compound, the Pain threshold ([2]; 40 min, control 0.28 ± 0.11) was 0.41 ± 0.12 mA, the Pain threshold ([2]; 60 min, control 0.26 ± 0.13) was 0.44 ± 0.15 mA and the Pain threshold ([2]; 90 min, control 0.26 ± 0.13) was 0.41 ± 0.13 mA. For the same compound, the Pain threshold ([2]; 120 min, control 0.25 ± 0.11) was 0.38 ± 0.13 mA, the “Increasing percentage of the pain threshold” value (“Increasing percentage” for short) ([2]; 20 min) was 37.4 ± 18.4 percentage and the “Increasing percentage” value ([2]; 40 min) was 71.4 ± 39.4 percentage. For the same compound, the “Increasing percentage” value ([2]; 60 min) was 86.3 ± 45.9 percentage, the “Increasing percentage” value ([2]; 90 min) was 72.5 ± 59.1 percentage and the “Increasing percentage” value ([2]; 120 min) was 69.6 ± 62.3 percentage. For the same compound, the Inhibition rate [3] was 93.7% and the “Number of body torsions” value ([3]; control 44.1 ± 12.8, P < 0.01) was 2.8 ± 4.8 n.
